Laboratory results from patent publication US20220402882A1, “HERBICIDAL COMPOUNDS” (SYNGENTA CROP PROTECTION AG, priority 2019, published 2022).

Key:
Format in all cases: in vivo
Conditions in all cases: evaluated after 13 days
[1] = tested on: Abutilon theophrasti (ABUTH); assay: Post-emergence glasshouse herbicide test
Summary of the method: (§1)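 Scores are percentage plant damage 13 days after treatment, binned 5=80-100%, 4=60-79%, 3=40-59%, 2=20-39%, 1=0-19%. Compounds were sprayed at 125 g/h unless otherwise indicated, either one day after sowing or on 8-day-old plants, under 24/16 °C, 14 h light and 65% humidity.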

[2] = tested on: Echinochloa crus-galli (ECHCG); assay: Post-emergence glasshouse herbicide test
Summary of the method: as §1

[3] = tested on: Ipomoea hederacea (IPOHE); assay: Post-emergence glasshouse herbicide test
Summary of the method: as §1

[4] = tested on: Setaria faberi (SETFA); assay: Post-emergence glasshouse herbicide test
Summary of the method: as §1

[5] = tested on: Amaranthus retoflexus (AMARE); assay: Post-emergence glasshouse herbicide test
Summary of the method: as §1

[6] = tested on: Abutilon theophrasti (ABUTH); assay: Pre-emergence glasshouse herbicide test
Summary of the method: as §1

[7] = tested on: Echinochloa crus-galli (ECHCG); assay: Pre-emergence glasshouse herbicide test
Summary of the method: as §1

[8] = tested on: Ipomoea hederacea (IPOHE); assay: Pre-emergence glasshouse herbicide test
Summary of the method: as §1

[9] = tested on: Setaria faberi (SETFA); assay: Pre-emergence glasshouse herbicide test
Summary of the method: as §1

[10] = tested on: Amaranthus retoflexus (AMARE); assay: Pre-emergence glasshouse herbicide test
Summary of the method: as §1

SMILES | percentage damage caused to the plant, ABUTH ([1]; 125 g/h) | percentage damage caused to the plant, ECHCG ([2]; 125 g/h) | percentage damage caused to the plant, IPOHE ([3]; 125 g/h) | percentage damage caused to the plant, SETFA ([4]; 125 g/h) | percentage damage caused to the plant, AMARE ([5]; 125 g/h) | percentage damage caused to the plant, ABUTH ([6]; 125 g/h) | percentage damage caused to the plant, ECHCG ([7]; 125 g/h) | percentage damage caused to the plant, IPOHE ([8]; 125 g/h) | percentage damage caused to the plant, SETFA ([9]; 125 g/h) | percentage damage caused to the plant, AMARE ([10]; 125 g/h) | percentage damage caused to the plant, ABUTH ([1]; *Applied at 250 g/ha) | percentage damage caused to the plant, ECHCG ([2]; *Applied at 250 g/ha) | percentage damage caused to the plant, IPOHE ([3]; *Applied at 250 g/ha) | percentage damage caused to the plant, SETFA ([4]; *Applied at 250 g/ha) | percentage damage caused to the plant, AMARE ([5]; *Applied at 250 g/ha) | percentage damage caused to the plant, ABUTH ([6]; *Applied at 250 g/ha) | percentage damage caused to the plant, ECHCG ([7]; *Applied at 250 g/ha) | percentage damage caused to the plant, IPOHE ([8]; *Applied at 250 g/ha) | percentage damage caused to the plant, SETFA ([9]; *Applied at 250 g/ha) | percentage damage caused to the plant, AMARE ([10]; *Applied at 250 g/ha)
CCCS(=O)(=O)c1c(OC(F)F)ccc(C(=O)Nc2nnnn2CC)c1Cl [Compound 1.051] | 5 (5=80-100%) | 5 (5=80-100%) | 4 (4=60-79%) | 5 (5=80-100%) | 5 (5=80-100%) | 5 (5=80-100%) | 5 (5=80-100%) | 4 (4=60-79%) | 5 (5=80-100%) | 5 (5=80-100%) | – | – | – | – | – | – | – | – | – | –
CC(C)CS(=O)(=O)c1c(OC(F)F)ccc(C(=O)Nc2nnnn2C)c1Cl [Compound 1.052] | 5 (5=80-100%) | 4 (4=60-79%) | 5 (5=80-100%) | 4 (4=60-79%) | 4 (4=60-79%) | 5 (5=80-100%) | 5 (5=80-100%) | 5 (5=80-100%) | 5 (5=80-100%) | 5 (5=80-100%) | – | – | – | – | – | – | – | – | – | –
CCn1nnnc1NC(=O)c1ccc(OC(F)F)c(S(=O)(=O)CC(C)C)c1Cl [Compound 1.053] | 5 (5=80-100%) | 5 (5=80-100%) | 5 (5=80-100%) | 5 (5=80-100%) | 5 (5=80-100%) | 5 (5=80-100%) | 5 (5=80-100%) | 4 (4=60-79%) | 5 (5=80-100%) | 5 (5=80-100%) | – | – | – | – | – | – | – | – | – | –
CC(C)S(=O)(=O)c1c(OC(F)F)ccc(C(=O)Nc2nnnn2C)c1Cl [Compound 1.054] | 4 (4=60-79%) | 4 (4=60-79%) | 4 (4=60-79%) | 4 (4=60-79%) | 4 (4=60-79%) | 5 (5=80-100%) | 5 (5=80-100%) | 4 (4=60-79%) | 5 (5=80-100%) | 5 (5=80-100%) | – | – | – | – | – | – | – | – | – | –
CCn1nnnc1NC(=O)c1ccc(OCC(F)(F)F)c(S(=O)(=O)CC)c1C [Compound 1.063] | 5 (5=80-100%) | 5 (5=80-100%) | 3 (3=40-59%) | 5 (5=80-100%) | 5 (5=80-100%) | 5 (5=80-100%) | 5 (5=80-100%) | 4 (4=60-79%) | 5 (5=80-100%) | 5 (5=80-100%) | – | – | – | – | – | – | – | – | – | –
CCn1nnnc1NC(=O)c1ccc(OCC(F)(F)F)c(S(=O)(=O)CC)c1Cl [Compound 1.065] | 5 (5=80-100%) | 5 (5=80-100%) | 4 (4=60-79%) | 5 (5=80-100%) | 5 (5=80-100%) | 5 (5=80-100%) | 5 (5=80-100%) | 3 (3=40-59%) | 5 (5=80-100%) | 5 (5=80-100%) | – | – | – | – | – | – | – | – | – | –
CCCSc1c(OC(F)F)ccc(C(=O)Nc2nnnn2C)c1Cl [Compound 1.066] | 5 (5=80-100%) | 4 (4=60-79%) | 5 (5=80-100%) | 4 (4=60-79%) | 5 (5=80-100%) | 5 (5=80-100%) | 5 (5=80-100%) | 3 (3=40-59%) | 5 (5=80-100%) | 5 (5=80-100%) | – | – | – | – | – | – | – | – | – | –
CCCSc1c(OC(F)F)ccc(C(=O)Nc2nnnn2CC)c1Cl [Compound 1.067] | 5 (5=80-100%) | 4 (4=60-79%) | 4 (4=60-79%) | 4 (4=60-79%) | 5 (5=80-100%) | 4 (4=60-79%) | 5 (5=80-100%) | 2 (2=20-39%) | 4 (4=60-79%) | 5 (5=80-100%) | – | – | – | – | – | – | – | – | – | –
Cc1nnc(NC(=O)c2ccc(OC(F)(F)F)c(S(C)(=O)=O)c2Cl)o1 [Compound 2.005] | – | – | – | – | – | – | – | – | – | – | 5 (5=80-100%) | 5 (5=80-100%) | 5 (5=80-100%) | 5 (5=80-100%) | 5 (5=80-100%) | 5 (5=80-100%) | 5 (5=80-100%) | 1 (1=0-19%) | 5 (5=80-100%) | 5 (5=80-100%)
CSc1c(OC(F)(F)F)ccc(C(=O)Nc2nnc(C)o2)c1Cl [Compound 2.006] | – | – | – | – | – | – | – | – | – | – | 5 (5=80-100%) | 5 (5=80-100%) | 5 (5=80-100%) | 5 (5=80-100%) | 5 (5=80-100%) | 2 (2=20-39%) | 1 (1=0-19%) | 1 (1=0-19%) | 1 (1=0-19%) | 5 (5=80-100%)
CCS(=O)(=O)c1cc(C(=O)Nc2nnc(C)o2)ccc1OC(F)(F)F [Compound 2.009] | 4 (4=60-79%) | 5 (5=80-100%) | 4 (4=60-79%) | 5 (5=80-100%) | 5 (5=80-100%) | 5 (5=80-100%) | 5 (5=80-100%) | 2 (2=20-39%) | 5 (5=80-100%) | 5 (5=80-100%) | – | – | – | – | – | – | – | – | – | –
CCSc1c(OC(F)(F)F)ccc(C(=O)Nc2nnc(C)o2)c1Cl [Compound 2.010] | 5 (5=80-100%) | 5 (5=80-100%) | 4 (4=60-79%) | 5 (5=80-100%) | 5 (5=80-100%) | 4 (4=60-79%) | 5 (5=80-100%) | 1 (1=0-19%) | 5 (5=80-100%) | 5 (5=80-100%) | – | – | – | – | – | – | – | – | – | –
